Ends that are not written are not given here.
Key:
[1] = system: A7r5 rat aortic vascular smooth muscle cells; experiment: Cell viability; assay type: cell-based; settings: 10 μM peptide, A7r5 cells (Figure S19-G)
HEK-293 T cells = assay type: cell-based; settings: pyrene butyrate treatment
[2] = system: HEK-293 T cells expressing PH-LgBiT; experiment: NanoLuc; assay type: cell-based; settings: PyB 25–200 μM in PBS 5 min before 1 μM YARA-HiBiT or R6-HiBiT (Figure S29)
[3] = previous literature reports; cited from earlier work

| Molecule | Toxicity of peptide dose [1] | Cell viability at 100 μM (29 μg/mL) (HEK-293 T cells) [%] | Cell viability at 200 μM (58 μg/mL) (HEK-293 T cells) [%] | Increase in activity over peptide alone with pyrene butyrate [2] [fold] | Activity enhancement reported for pyrene butyrate [3] |
| --- | --- | --- | --- | --- | --- |
| YARAAARQARAKALARQLGVAA [YARA-MK2i] | nontoxic | – | – | – | – |
| O=C(O)CCCc1ccc2ccc3cccc4ccc1c2c34 [pyrene butyrate, 1-pyrenebutyric acid] | – | 65 | 57 | ≤ 1.3 | 1.5–5 fold |

Source: publication PMC9082340 (ACS applied materials & interfaces, 2020)
